Tests used:
[1] = tested on: ICAM-1 expression, BEAS2B cells; assay: Poly I:C-induced ICAM-1 expression in BEAS2B cells; format: cell-based; conditions: Homo sapiens, BEAS-2B; read-out: Poly IC induced ICAM1 in BEAS2B, IC50
How it was run: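 BEAS2B human bronchial epithelial cells pre-incubated 2 h with compound, then transfected with poly I:C (1 μg/mL) plus Oligofectamine. After 18 h, cell-surface ICAM-1 read by cell-based ELISA (A450–655), normalised to Crystal Violet cell number (A595); inhibition calculated against vehicle control at each concentration.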

[2] = tested on: TNFα release, d-U937 cells; assay: LPS-induced TNFα release in d-U937 cells; format: cell-based; conditions: Homo sapiens, dU937; relative to 10 μg/mL BIRB796; Table 4c1; read-out: LPS Induced Release of Cytokine in d-U937 Cells, TNFα REC50
How it was run: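 U937 cells differentiated with PMA (100 ng/mL, 48–72 hr), pre-treated with compound for 2 hr, then stimulated with E. coli LPS (0.1 μg/mL) for 4 hr. Supernatant cytokine measured by sandwich ELISA; inhibition versus vehicle control, REC50 from concentration-response curve.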

cSrc = cSrc (Homo sapiens, UniProt P12931); assay: c-Src enzyme inhibition (FRET); format: biochemical; conditions: Table 4a1
Chain of cSrc (P12931 whole entry): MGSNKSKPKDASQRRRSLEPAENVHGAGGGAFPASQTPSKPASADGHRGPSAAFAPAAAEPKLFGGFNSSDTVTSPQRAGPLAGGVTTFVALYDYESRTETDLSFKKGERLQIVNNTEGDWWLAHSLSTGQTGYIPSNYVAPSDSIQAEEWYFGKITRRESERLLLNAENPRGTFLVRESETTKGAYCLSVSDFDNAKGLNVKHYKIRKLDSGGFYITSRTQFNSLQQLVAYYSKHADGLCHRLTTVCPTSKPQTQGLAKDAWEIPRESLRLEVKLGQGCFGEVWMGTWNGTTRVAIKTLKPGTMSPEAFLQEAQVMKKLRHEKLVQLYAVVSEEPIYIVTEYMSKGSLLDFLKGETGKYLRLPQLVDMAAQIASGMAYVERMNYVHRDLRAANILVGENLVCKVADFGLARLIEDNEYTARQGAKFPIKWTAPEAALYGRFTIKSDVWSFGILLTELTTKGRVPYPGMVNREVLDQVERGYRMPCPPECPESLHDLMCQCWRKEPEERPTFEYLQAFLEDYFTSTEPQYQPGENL
How it was run: (§1)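 2 hr RT enzyme + cpd (added solns 4/0.4/0.04/0.004 μg/mL); + FRET peptide (8 μM soln) + ATP soln (c-Src 800 μM, Syk 60 μM), 1 hr; protease development 1 hr; read donor/acceptor emission ratio.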

Syk = Syk (Homo sapiens, UniProt P43405); assay: Syk enzyme inhibition (FRET); format: biochemical; conditions: Table 4a1
How it was run: as §1

GSK3α = GSK3α (Homo sapiens, UniProt P49840); assay: GSK 3α enzyme inhibition (FRET), Method 1; format: biochemical; conditions: Table 4a1
Chain of GSK3α (P49840 whole entry): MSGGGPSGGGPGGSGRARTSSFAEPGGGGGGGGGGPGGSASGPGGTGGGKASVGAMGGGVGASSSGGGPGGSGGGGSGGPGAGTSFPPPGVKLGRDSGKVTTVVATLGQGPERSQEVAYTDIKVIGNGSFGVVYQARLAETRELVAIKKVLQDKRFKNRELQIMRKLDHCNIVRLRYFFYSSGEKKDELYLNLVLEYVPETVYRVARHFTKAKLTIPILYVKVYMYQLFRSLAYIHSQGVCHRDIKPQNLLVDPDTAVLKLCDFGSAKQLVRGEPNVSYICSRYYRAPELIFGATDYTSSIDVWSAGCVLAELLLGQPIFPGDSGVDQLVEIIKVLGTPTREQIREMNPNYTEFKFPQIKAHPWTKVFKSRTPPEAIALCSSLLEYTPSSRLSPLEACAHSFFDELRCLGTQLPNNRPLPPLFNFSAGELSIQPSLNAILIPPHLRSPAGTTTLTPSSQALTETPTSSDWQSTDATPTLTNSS
How it was run: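 Z-LYTE FRET format. Enzyme (500 ng/mL stock) + compound (stocks 4–0.004 μg/mL), 2 hr RT; add peptide (8 μM stock) + ATP (40 μM stock), 1 hr; protease 1 hr; read donor/acceptor emission ratio.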

[3] = tested on: IL-8 release, d-U937 cells; assay: LPS-induced IL-8 release in d-U937 cells; format: cell-based; conditions: Homo sapiens, dU937; Table 4c1; read-out: LPS Induced Release of Cytokine in d-U937 Cells, IL-8 IC50
How it was run: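 IL-8 release after a 4 hr challenge with LPS (0.1 μg/mL, E. coli 0111:B4) following a 2 hr compound pretreatment. Cells were human U937 monocytes differentiated to macrophage-type with PMA 100 ng/mL for 48–72 hr. Relative 50% effective concentration derived from concentration–response data.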

d-U937 cells = assay: Cell viability: MTT assay; format: cell-based, human; conditions: 1 μg/mL
How it was run: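 Differentiated U937 cells exposed to compound at 1 or 10 μg/mL, either 4 h in 5% FCS or 24 h in 10% FCS RPMI1640. MTT then added for 1 h, formazan dissolved in DMSO and read at 550 nm. Viability loss given as % versus 0.5% DMSO vehicle; apparent gains appear negative.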

Row | EC50 [2] [nM] | IC50 (cSrc) [nM] | IC50 (Syk) [nM] | IC50 (GSK3α) [nM] | IC50 [3] [nM] | Compound | IC50 [1] [nM] | Cell viability at time point in d-U937 cells, 4 h (d-U937 cells) | Cell viability at time point in d-U937 cells, 24 h (d-U937 cells)
1 | 0.3 | 3 | 6 | 247 | 1.5 | COc1cc(Nc2nccc(Oc3ccc(NC(=O)Nc4cc(C(C)(C)C)nn4-c4ccc(C)cc4)c4ccccc34)n2)cc(C(=O)NCCN2CCOCC2)c1 [Example 52, 3-((4-((4-(3-(3-(tert-butyl)-1-(p-tolyl)-1H-pyrazol-5-yl)ureido)naphthalen-1-yl)oxy)pyrimidin-2-yl)amino)-5-methoxy-N-(2-morpholinoethyl)benzamide] | 5 | −ve (−ve and +ve indicate that the value is below and above respectively, the no significant effect threshold, defined as 30% inhibition at 1 μg/mL at the time point indicated) | −ve (−ve and +ve indicate that the value is below and above respectively, the no significant effect threshold, defined as 30% inhibition at 1 μg/mL at the time point indicated)
2 | 3.3 | 3 | 4 | 281 | 2.1 | COCCOc1cccc(-n2nc(C(C)(C)C)cc2NC(=O)Nc2ccc(Oc3ccnc(Nc4cc(OC)cc(C(=O)NCCN5CCOCC5)c4)n3)c3ccccc23)c1 [Example 55, 3-((4-((4-(3-(3-(tert-butyl)-1-(3-(2-methoxyethoxy)phenyl)-1H-pyrazol-5-yl)ureido)naphthalen-1-yl)oxy)pyrimidin-2-yl)amino)-5-methoxy-N-(2-morpholinoethyl)benzamide] | 5.8 | −ve (−ve and +ve indicate that the value is below and above respectively, the no significant effect threshold, defined as 30% inhibition at 1 μg/mL at the time point indicated) | −ve (−ve and +ve indicate that the value is below and above respectively, the no significant effect threshold, defined as 30% inhibition at 1 μg/mL at the time point indicated)
3 | 1.4 | 5 | 12 | > 13000 | 1.7 | COc1cc(Nc2nccc(Oc3ccc(NC(=O)Nc4cc(C(C)C)nn4-c4ccc(C)c(C)c4)c4ccccc34)n2)cc(C(=O)NCCN2CCOCC2)c1 [Example 56, 3-((4-((4-(3-(1-(3,4-dimethylphenyl)-3-isopropyl-1H-pyrazol-5-yl)ureido)naphthalen-1-yl)oxy)pyrimidin-2-yl)amino)-5-methoxy-N-(2-morpholinoethyl)benzamide] | 85.4 | −ve (−ve and +ve indicate that the value is below and above respectively, the no significant effect threshold, defined as 30% inhibition at 1 μg/mL at the time point indicated) | −ve (−ve and +ve indicate that the value is below and above respectively, the no significant effect threshold, defined as 30% inhibition at 1 μg/mL at the time point indicated)
4 | 11.7 | < 1 | 296 | 8470 | 46.3 | COc1ccc(-n2nc(C3CCCO3)cc2NC(=O)Nc2ccc(Oc3ccnc(Nc4cc(OC)cc(C(=O)NCCN5CCOCC5)c4)n3)c3ccccc23)cc1 (stereo not shown) [Example 58, 3-methoxy-5-((4-((4-(3-(1-(4-methoxyphenyl)-3-(tetrahydrofuran-2-yl)-1H-pyrazol-5-yl)ureido)naphthalen-1-yl)oxy)pyrimidin-2-yl)amino)-N-(2-morpholinoethyl)benzamide] | 2.1 | −ve (−ve and +ve indicate that the value is below and above respectively, the no significant effect threshold, defined as 30% inhibition at 1 μg/mL at the time point indicated) | −ve (−ve and +ve indicate that the value is below and above respectively, the no significant effect threshold, defined as 30% inhibition at 1 μg/mL at the time point indicated)
5 | 2 | < 1 | 12 | 1190 | 6.8 | COc1ccc(-n2nc(C3CCOC3)cc2NC(=O)Nc2ccc(Oc3ccnc(Nc4cc(OC)cc(C(=O)NCCN5CCOCC5)c4)n3)c3ccccc23)cc1 (stereo not shown) [Example 59, 3-methoxy-5-((4-((4-(3-(1-(4-methoxyphenyl)-3-(tetrahydrofuran-3-yl)-1H-pyrazol-5-yl)ureido)naphthalen-1-yl)oxy)pyrimidin-2-yl)amino)-N-(2-morpholinoethyl)benzamide] | 39.7 | −ve (−ve and +ve indicate that the value is below and above respectively, the no significant effect threshold, defined as 30% inhibition at 1 μg/mL at the time point indicated) | −ve (−ve and +ve indicate that the value is below and above respectively, the no significant effect threshold, defined as 30% inhibition at 1 μg/mL at the time point indicated)
6 | 1.1 | 13 | 60 | > 13200 | 3.9 | Cc1ccc(-n2nc(C(C)C)cc2NC(=O)Nc2ccc(Oc3ccnc(Nc4cc(Cl)cc(C(=O)NCCN5CCOCC5)c4)n3)c3ccccc23)cc1 [Example 60, 3-chloro-5-((4-((4-(3-(3-isopropyl-1-(p-tolyl)-1H-pyrazol-5-yl)ureido)naphthalen-1-yl)oxy)pyrimidin-2-yl)amino)-N-(2-morpholinoethyl)benzamide] | 132 | −ve (−ve and +ve indicate that the value is below and above respectively, the no significant effect threshold, defined as 30% inhibition at 1 μg/mL at the time point indicated) | −ve (−ve and +ve indicate that the value is below and above respectively, the no significant effect threshold, defined as 30% inhibition at 1 μg/mL at the time point indicated)
7 | 1.1 | 9 | 32 | 6940 | 2 | COc1ccc(-n2nc(C(C)C)cc2NC(=O)Nc2ccc(Oc3ccnc(Nc4cc(Cl)cc(C(=O)NCCN5CCOCC5)c4)n3)c3ccccc23)cc1 [Example 61, 3-chloro-5-((4-((4-(3-(3-isopropyl-1-(4-methoxyphenyl)-1H-pyrazol-5-yl)ureido)naphthalen-1-yl)oxy)pyrimidin-2-yl)amino)-N-(2-morpholinoethyl)benzamide] | 129 | −ve (−ve and +ve indicate that the value is below and above respectively, the no significant effect threshold, defined as 30% inhibition at 1 μg/mL at the time point indicated) | −ve (−ve and +ve indicate that the value is below and above respectively, the no significant effect threshold, defined as 30% inhibition at 1 μg/mL at the time point indicated)
8 | 1.4 | 7 | 13 | 995 | 1.8 | Cc1ccc(-n2nc(C(C)(C)C)cc2NC(=O)Nc2ccc(Oc3ccnc(Nc4cc(Br)cc(C(=O)NCCN5CCOCC5)c4)n3)c3ccccc23)cc1 [Example 62, 3-bromo-5-((4-((4-(3-(3-(tert-butyl)-1-(p-tolyl)-1H-pyrazol-5-yl)ureido)naphthalen-1-yl)oxy)pyrimidin-2-yl)amino)-N-(2-morpholinoethyl)benzamide] | 1 | −ve (−ve and +ve indicate that the value is below and above respectively, the no significant effect threshold, defined as 30% inhibition at 1 μg/mL at the time point indicated) | +ve (−ve and +ve indicate that the value is below and above respectively, the no significant effect threshold, defined as 30% inhibition at 1 μg/mL at the time point indicated)
